# US7390819B2 (Altana Pharma AG, priority 2003, dated 2008)
# Molecular target: T1, human inducible NO-synthase (Homo sapiens, UniProt P35228)
# T1 construct: host or cells: crude cytosolic fraction
# Test: Measurement of inducible NO-synthase activity ([3H]arginine conversion)
# Type: biochemical
# Conditions: crude cytosolic fraction containing human inducible NO-synthase; 0.1 μM arginine; 45 to 60 min at 37° C.; read-out: Inhibition of INOS activity [measured as −logIC50 (mol/l)] (converted)
# Method: Measurement of Inducible NO-synthase Activity
# The assay is performed in 96-well microliter F-plates (Greiner, Frickenhausen, FRG) in a total volume of 100 μl in the presence of 100 nM calmodulin, 226 μM CaCl2, 477 μM MgCl2, 5 μM flavin-adenine-dinucleotide (FAD), 5 μM flavin mononucleotide (FMN), 0.1 mM NADPH, 7 mM glutathione, 10 μM BH4 and […] pH 7.2. Arginine concentrations are 0.1 μM for enzyme inhibition experiments. 150000 dpm of [^3H]arginine are added to the assay mixture. Enzyme reaction is started by the addition of 4 μg of a crude cytosolic fraction containing human inducible NO-synthase and the reaction mixture is incubated for 45 to 60 min at 37° C. Enzyme reaction is stopped by adding 10 μl of 2M MES-buffer pH 5.0. 50 μl of the incubation mixture are transferred into a MADP N65 filtration microtiter plate (Millipore, Eschborn, FRG) containing already 50 μl of AG-50W-X8 cation exchange resin (Biorad, München, FRG). The resin in the Na loaded form is pre-equilibrated in water and 70 μl (corresponding to 50 μl dry beads) are pipetted under heavy stirring with a 8 channel pipette into the filtration plate. After pipetting 50 μl of the enzyme reaction mixture onto the filtration plates, the plates are placed on a filtration manifold (Porvair, Shepperton, UK) and the flow through is collected in Pico scintillation plates (Packard, Meriden, Conn.). The resin in the filtration plates is washed with 75 μl of water (1×50 μl and 1×25 μl) which is also collected in the same plate as the sample. The total flow through of 125 μl is mixed with 175 μl of Microscint-40 scintillation cocktail (Packard) and the scintillation plate is sealed with TopSeal P-foil (Packard). Scintillation plates are counted in a scintillation counter.
# For the measurement of inducible NO-synthase-inhibiting potencies of compounds increasing concentrations of inhibitors were included into the incubation mixture. IC50-values were calculated from the percent inhibition at given concentrations by nonlinear least square fitting.
# The inhibitory values determined for the compounds according to the invention follow from the following table A, in which the compound numbers correspond to the example numbers.
# T1 sequence (P35228 whole entry): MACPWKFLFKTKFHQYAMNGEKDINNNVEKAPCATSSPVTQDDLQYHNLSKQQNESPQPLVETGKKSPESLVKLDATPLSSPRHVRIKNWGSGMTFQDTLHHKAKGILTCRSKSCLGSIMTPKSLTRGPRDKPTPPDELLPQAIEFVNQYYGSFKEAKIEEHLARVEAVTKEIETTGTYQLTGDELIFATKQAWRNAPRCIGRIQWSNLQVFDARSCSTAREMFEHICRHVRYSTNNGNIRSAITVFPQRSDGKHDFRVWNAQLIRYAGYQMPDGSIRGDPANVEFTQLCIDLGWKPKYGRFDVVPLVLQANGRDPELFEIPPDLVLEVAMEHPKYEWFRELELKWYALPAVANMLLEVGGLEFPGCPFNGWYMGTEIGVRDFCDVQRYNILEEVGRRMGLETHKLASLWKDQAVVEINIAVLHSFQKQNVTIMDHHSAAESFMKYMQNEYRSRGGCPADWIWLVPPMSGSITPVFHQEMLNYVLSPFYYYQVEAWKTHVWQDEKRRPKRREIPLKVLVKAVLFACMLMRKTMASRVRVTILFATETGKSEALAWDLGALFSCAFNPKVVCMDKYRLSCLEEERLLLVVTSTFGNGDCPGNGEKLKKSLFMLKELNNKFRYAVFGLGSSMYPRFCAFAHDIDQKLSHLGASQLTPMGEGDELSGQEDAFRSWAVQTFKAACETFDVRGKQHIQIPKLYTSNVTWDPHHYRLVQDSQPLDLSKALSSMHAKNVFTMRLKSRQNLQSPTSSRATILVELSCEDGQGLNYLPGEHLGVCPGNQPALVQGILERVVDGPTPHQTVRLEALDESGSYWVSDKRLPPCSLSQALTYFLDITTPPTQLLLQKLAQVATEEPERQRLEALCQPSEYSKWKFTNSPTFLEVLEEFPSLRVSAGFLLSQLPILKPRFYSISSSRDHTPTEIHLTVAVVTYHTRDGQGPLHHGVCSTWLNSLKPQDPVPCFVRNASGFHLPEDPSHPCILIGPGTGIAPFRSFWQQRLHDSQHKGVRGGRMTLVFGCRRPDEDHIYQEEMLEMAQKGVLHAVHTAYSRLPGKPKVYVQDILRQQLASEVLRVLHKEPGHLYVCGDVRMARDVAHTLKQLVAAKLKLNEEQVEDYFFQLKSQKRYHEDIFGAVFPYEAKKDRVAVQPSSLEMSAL
row,IC50 [nM],Compound
1,89.1,"COc1ccnc(CCc2nc3cc4ccccc4nc3[nH]2)c1 [compound 1, 2-[2-(4-Methoxypyridin-2-yl)ethyl]-3H-imidazo[4,5-b]quinoline]"
2,117,"COc1ccnc(CCc2nc3cc4cc(C)ccc4nc3[nH]2)c1 [compound 2, 2-[2-(4-Methoxypyridin-2-yl)ethyl]-7-methyl-3H-imidazo[4,5-b]quinoline]"
3,135,"COc1ccnc(CCc2nc3cc4cccc(C)c4nc3[nH]2)c1 [compound 3, 2-[2-(4-Methoxypyridin-2-yl)ethyl]-5-methyl-3H-imidazo[4,5-b]quinoline]"
4,102,"COc1ccnc(CCc2nc3cc4cc(OC)ccc4nc3[nH]2)c1 [compound 4, 7-Methoxy-2-[2-(4-methoxypyridin-2-yl)ethyl]-3H-imidazo[4,5-b]quinoline]"
5,77.6,"COc1ccnc(CCc2nc3cc4cc(Br)ccc4nc3[nH]2)c1 [compound 5, 7-Bromo-2-[2-(4-methoxypyridin-2-yl)ethyl]-3H-imidazo[4,5-b]quinoline]"

row,Compound,IC50 [nM]
1,COc1ccnc(CCc2nc3cc4cc(-c5ccc(CO)cc5)ccc4nc3[nH]2)c1 [compound 6],363
